Experimental data published in US10308649B2, “Compounds and methods to suppress autoimmune response” (Oregon State University, priority 2014, dated 2019).

Key:
[1] = system: AhR; assay: XRE-luciferase reporter gene in Hepa-1 cells expressing endogenous AhR; assay type: cell-based, mouse; details: for XRE-luciferase reporter activity, in words: 16 hours after treating; for fold activation of AhR (reporter gene activity): 10 nM, 12 hours
Procedure: FIGS. 9a-9f illustrate activity studies for 10-Cl-BBQ, 11-Cl-BBQ, and combinations thereof. Hepa-1 cells expressing endogenous AhR were transfected with a xenobiotic responsive element (XRE)-luciferase reporter gene. […] The activity was measured 16 hours after treating the cells with the various concentrations.
The reporter gene activity was measured after 12 hours of treatment with TCDD at a concentration of 1 nM or with the indicated concentrations of AHRL1.
Hepa-1 cells expressing endogenous AhR were transfected with a XRE-luciferase reporter gene. […] The mean luciferase activity is shown with SEM.

[2] = Serum pharmacokinetics after i.p. injection; details: mouse
Procedure: FIGS. 13a and 13b show the pharmacokinetics of AHRL1. To determine the half-life of AHRL1, mice were treated with a single intraperitoneal injection of the chemical, and serum concentrations were measured over time by mass spectrometry. In FIG. 13a, C57BL/6 mice were given 10 mg/kg AHRL1 by i.p. injection. Blood was collected at the indicated times by cardiac puncture. The blood serum was processed to remove protein and the samples were analyzed by QTRAP 4000 LC/MS/MS. The blood serum concentration of AHRL1 was determined from a standard curve based on known concentrations of AHRL1.
Based on the model, the serum half-life of AHRL1 is approximately 2 hours. Additional kinetic parameters include the absorption rate constant (ka) which was 1.2 h^−1. […] The area under the concentration-time curve (AUC0-∞) was 102.5 mg/L*h.

[3] = molecular target: T1, AhR (Mus musculus, UniProt P30561); assay: Competitive inhibition of [3H] 3-MC binding to AhR; details: for fold lower / less active than TCDD: relative to IC50 of TCDD
T1 sequence (P30561 10-848): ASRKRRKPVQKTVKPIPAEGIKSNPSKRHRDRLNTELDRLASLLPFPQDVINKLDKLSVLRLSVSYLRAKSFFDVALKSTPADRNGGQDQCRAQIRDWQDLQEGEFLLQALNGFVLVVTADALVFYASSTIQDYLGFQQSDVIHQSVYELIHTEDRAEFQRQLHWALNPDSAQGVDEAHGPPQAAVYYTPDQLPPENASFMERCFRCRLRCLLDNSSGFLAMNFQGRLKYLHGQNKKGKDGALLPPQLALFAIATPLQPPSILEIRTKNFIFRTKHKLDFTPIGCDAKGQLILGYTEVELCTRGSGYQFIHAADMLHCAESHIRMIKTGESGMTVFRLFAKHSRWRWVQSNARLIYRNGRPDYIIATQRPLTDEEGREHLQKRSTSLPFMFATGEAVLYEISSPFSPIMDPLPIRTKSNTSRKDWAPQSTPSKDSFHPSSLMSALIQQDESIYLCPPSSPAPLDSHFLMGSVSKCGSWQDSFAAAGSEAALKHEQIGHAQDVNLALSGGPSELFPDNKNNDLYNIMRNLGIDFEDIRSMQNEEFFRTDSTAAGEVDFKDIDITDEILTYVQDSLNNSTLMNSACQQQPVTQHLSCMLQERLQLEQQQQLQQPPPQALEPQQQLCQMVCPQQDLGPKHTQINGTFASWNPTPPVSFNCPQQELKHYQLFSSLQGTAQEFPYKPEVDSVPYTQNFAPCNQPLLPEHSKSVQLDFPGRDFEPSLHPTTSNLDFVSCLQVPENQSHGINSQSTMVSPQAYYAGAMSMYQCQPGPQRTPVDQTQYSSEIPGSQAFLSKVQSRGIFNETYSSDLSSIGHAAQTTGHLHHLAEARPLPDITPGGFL
Text: 3-MC binding to AhR. […] 3-methylcholanthrene (3-MC) to AhR.

[4] = system: donor CD4+ T cells; assay: Acute graft versus host model: Treg phenotype of alloactivated donor CD4+ T cells; assay type: in vivo, mouse; details: 10 mg/kg day 0 and day 1, day 2, p-value=0.05
Procedure: FIGS. 14a-14i show AHRL1 induces an AhR-dependent Treg phenotype by a mechanism that is mediated by the AhR in donor CD4+ T cells. The AhR-induced Tregs were identified as the CD4+CD25+CTLA-4+CD62L^low population of T cells. To determine if AHRL1 induced changes in donor CD4+ T cells, AHRL1 was compared with TCDD and the vehicle. On day 0, B6D2F1 host mice in groups of 5 were injected with CFSE-labeled C57BL/6 (H-2^b/b) T cells and given 15 mg/kg of AHRL1, 15 μg/kg of TCDD, or vehicle by i.p. injection. At 24 hours, an additional dose of 7 mg/kg of AHRL1 or vehicle was given. Mice that were treated with TCDD at the time of donor cell transfer were used as positive controls. Splenocytes were isolated on day 2 for phenotypic analysis of the alloresponsive (CFSE-diluted) donor CD4+ T cells. Splenocytes were harvested from the host mice and the CD4+ T cells were identified by flow cytometry.
On day 0, B6D2F1 host mice in groups of 5 were injected with donor T cells obtained from AhR^+/+ or AhR-deficient (AhR^−/−) C57BL/6 mice. Host mice were treated with 2 mg/kg of AHRL1 or vehicle immediately following donor cell transfer and again at 24 hours. […] Thus, the AhR in the CD4+ T cell is the primary target driving the AhR-Treg phenotype.
On day 0, B6D2F1 host mice in groups of 3-5 were injected with C57BL/6 T cells. Mice were immediately treated with 0 mg/kg, 0.4 mg/kg, 2 mg/kg, or 10 mg/kg of AHRL1 and again on day 1. On day 2, expression of markers associated with the AhR-Treg phenotype increased as the dose of AHRL1 increased. Further, dosing generally correlated with degree of activation of AhR as reflected by CYP1A1, CYP1B1, and AHRR expression in lymph nodes from the same mice. The asterisk (*) indicates a p-value of 0.05 relative to vehicle treatment.
FIGS. 16c and 16d show expression of phenotypic markers, CD25+ICOS+CD62L^low and CD25+CTLA-4+, associated with AhR-Tregs in mice treated with AHRL1. Host mice were treated with 10 mg/kg of AHRL1, 11-Cl-BBQ analog, or vehicle on day 0 and day 1 following donor cell transfer. On day 2, the alloactivated CD4+ donor T cells were identified based on CFSE dilution. The percentage of donor cells in each group expressing the Treg markers were derived from flow histograms. The data represents mean±SEM of 5 mice per treatment. […] Analog 1 is statistically different from AHRL1 and analog 4 (p-value=0.05). […], analog 1, and analog 4 are shown to be AhR ligands that are capable of inducing Tregs in vivo. Accordingly, analogs 1 and 4 are expected to have a similar therapeutic effect in a subject as AHRL1 by suppressing an autoimmune response. Additionally, analog 6, analog 7, and other analogs of 11-Cl-BBQ, that are found to be active AhR ligands using the disclosed screening method, are expected to induce Tregs and suppress CTL to provide treatment and/or prevention of immune-mediated diseases.

## O=c1c2cccc3cccc(c32)c2nc3cc(Cl)ccc3n12 [11-Cl-BBQ, 11-chloro-7H-benzimidazo[2,1-a]benzo[de]Iso-quinolin-7-one]
[1]
  XRE-luciferase reporter activity, in words: increased AhR reporter activity as compared to 10-Cl-BBQ alone
[2]
  in vivo serum half-life: approximately two

## O=c1c2ccc3ccc4cccc5cc(c2c3c45)c2nc3ccc(Cl)cc3n12 [analog 3, 11-Chloro-8H-benzimidazo[2,1-a]phenanthro[3,4,5-defg]isoquinolin-8-one]
[1]
  fold activation of AhR (reporter gene activity): 2 fold
[3]
  IC50: 77.3 nM
  fold lower / less active than TCDD: 10 fold

## O=C(O)c1ccc2c3c1cccc3c(=O)n1c3ccccc3nc21 [analog 5, 7-Oxo-7H-benzimidazo[2,1-a]benzo[de]isoquinoline-3-carboxylic acid]
[1]
  fold activation of AhR (reporter gene activity): did not induce reporter activity
[3]
  IC50: 45200 nM
  fold lower / less active than TCDD: 1000 fold

## NN1C(=O)c2ccc3c(=O)n4c5ccc(Cl)cc5nc4c4ccc(c2c34)C1=O [analog 2, 2-Amino-10-chlorobenzimidazo[2,1-b]benzo[lmn][3,8]phenanthroline-1,3,6(2H)-trione]
[1]
  fold activation of AhR (reporter gene activity): did not induce reporter activity
[3]
  IC50, competitive inhibition of [3H] 3-MC binding to AhR: inactive

## O=c1c2cccc3cccc(c32)c2nc3ccccc3n12 [analog 1, 7H-Benzimidazo[2,1-a]benzo[de]isoquinolin-7-one]
[1]
  fold activation of AhR (reporter gene activity): 13 fold
[4]
  expression of CD25+CTLA-4+ on alloactivated CD4+ donor T cells: statistically different from vehicle
  expression of CD25+ICOS+CD62Llow on alloactivated CD4+ donor T cells: statistically different from vehicle
[3]
  IC50: 13.7 nM

## O=c1c2ccc(Cl)c3cccc(c32)c2nc3cc(Cl)ccc3n12 [analog 4, 4,11-Dichloro-7H-benzimidazo[2,1-a]benzo[de]isoquinolin-7-one]
[1]
  fold activation of AhR (reporter gene activity): 19 fold
[4]
  expression of CD25+CTLA-4+ on alloactivated CD4+ donor T cells: statistically different from vehicle
  expression of CD25+ICOS+CD62Llow on alloactivated CD4+ donor T cells: statistically different from vehicle
[3]
  IC50: 5.2 nM

## O=c1c2cccc3cccc(c32)c2nc3ccc(Cl)cc3n12 [10-Cl-BBQ, 10-chloro-7H-benzimidazo[2,1-a]benzo[de]Iso-quinolin-7-one]
[1]
  XRE-luciferase reporter activity, in words: activate AhR
[2]
  in vivo serum half-life: approximately two
